Data from US20040180888A1 (priority 2001, published 2004).
Where two headings read alike, the source gives them in different places. Each block holds one compound with its values, some of them ahead of it.

Experiments:
HIV-1 K103R = assay: microbe, parasite or virus in culture; format: cell-based; settings: for K103R (Nx) resistance shift: EC90 K103R versus WTIIIB
HIV-1 Y181C = assay: microbe, parasite or virus in culture; format: cell-based; settings: for Y181C (Nx) resistance shift: EC50 Y181C versus WTIIIB
HIV-1 WTIIIB [1] = assay: Protection of MT-4 cells from HIV-1-induced cytopathogenicity, MTT method, WTIIIB; format: cell-based
Source text: Example 26 illustrates the influence of substituents at positions 4, 5, 6, and 7 of the indole ring, in which position 2 of the indole ring is maintained constant, and the substitution at the 3,5-position of the phenyl ring is either hydrogen or held constant with a 3,5-dimethyl substitution. Table 3 presents the influence of these variations on the ability of the compounds to protect cells from HIV-1 induced pathogenecity.

HIV-1 = settings: for (Nx) protein binding shift α-GP 1 mg/mL: EC90 with 1 mg/mL glycoprotein versus RPMI; for (Nx) protein binding shift HSA 45 mg/mL: EC90 with 45 mg/mL HSA versus RPMI
HIV-1 WTIIIB [2] = assay: p24 reduction in virus-infected C8166 cells, WTIIIB; format: cell-based
mock-infected MT-4 cells = assay: Viability of mock-infected MT-4 cells, MTT method; format: cell-based
HIV-1 K103N-Y181C = assay: microbe, parasite or virus in culture; format: cell-based; settings: for K103N-Y181C (Nx) resistance shift: EC50 K103N-Y181C versus WTIIIB
[3] = Viability of mock-infected MT-4 cells, MTT method; format: cell-based; settings: human; mock-infected MT-4 cells, MTT
[4] = reduce p24 by 90% in virus-infected C8166 cells, read-out: K103R EC90
[5] = 50% protection of MT-4 cells, MTT, read-out: Y181C EC50
[6] = read-out: EC90 HSA 45 mg/mL, HIV-1-infected MT-4 cells, RPMI 10% FCS plus 45 mg/mL human serum albumin
[7] = read-out: EC90 RPMI, reduce p24 by 90% in HIV-1-infected MT-4 cells, RPMI 10% FCS
[8] = read-out: EC90 α-GP 1 mg/mL, HIV-1-infected MT-4 cells, RPMI 10% FCS plus 1 mg/mL glycoprotein
[9] = reduce p24 by 90% in virus-infected C8166 cells, read-out: WTIIIB EC90
[10] = 50% protection of MT-4 cells, MTT, read-out: K103N-Y181C EC50
[11] = Human immunodeficiency virus 1, MT4, read-out: Y181C EC50
[12] = Human immunodeficiency virus 1, MT4, 50% protection of MT-4 cells
[13] = Human immunodeficiency virus 1, MT4, read-out: K103N-Y181C EC50

melting point: 279 to 280 °C
Compound: Cc1cc(C)cc(S(=O)(=O)c2c(CC(N)=O)[nH]c3ccc(F)c(Cl)c23)c1 [5h, 4-Chloro-3-(3,5-dimethylphenylsulfonyl)-5-fluoroindole-2-carboxyamide]

Compound: Cc1cc(C)cc(S(=O)(=O)c2c(C(=O)NCC(N)=O)[nH]c3ccc(Cl)cc23)c1 [compound 4, 2-[N-[5-Chloro-3-(3,5-dimethylphenylsulfonyl)indol-2-carboxy-amido]]-acetamide]
K103R (Nx) resistance shift (HIV-1 K103R): 10 x
EC90 (HIV-1 K103R; [4]): 100 nM
EC50 (HIV-1 Y181C; [5]): 30 nM
Y181C (Nx) resistance shift (HIV-1 Y181C): 5 x
EC50 (HIV-1 WTIIIB [1]; 50% protection of MT-4 cells): 6 nM
(Nx) protein binding shift α-GP 1 mg/mL (HIV-1): 3 x
(Nx) protein binding shift HSA 45 mg/mL (HIV-1): 80 x
EC90 (HIV-1; [6]): 4800 nM
EC90 (HIV-1; [7]): 60 nM
EC90 (HIV-1; [8]): 200 nM
EC90 (HIV-1 WTIIIB [2]; [9]): 10 nM
CC50 (mock-infected MT-4 cells): 30000 nM
EC50 (HIV-1 K103N-Y181C; [10]): 800 nM
K103N-Y181C (Nx) resistance shift (HIV-1 K103N-Y181C): 133 x

melting point: 262 to 264 °C
Compound: Cc1cc(C)cc(S(=O)(=O)c2c(CC(N)=O)[nH]c3cc(Cl)c(F)cc23)c1 [5i, 6-Chloro-3-(3,5-dimethylphenylsulfonyl)-5-fluoroindole-2-carboxyamide]

melting point: > 300 °C
Compound: Cc1cc(C)cc(S(=O)(=O)c2c(CC(N)=O)[nH]c3c(Cl)cc(Cl)cc23)c1 [compound 10, 5,7-Dichloro-3-(3,5-dimethylphenylsulfonyl)indole-2-carboxyamide]

Compound: Cc1cc(C)cc(S(=O)(=O)c2c(C(=O)NNC(C)C)[nH]c3ccc(Cl)cc23)c1 [Compd 11]
CC50 (mock-infected MT-4 cells): 17000 nM

Compound: 5-Chloro-3-(3,5-dimethylphenylsulfonyl)-indole-2-carboxyamide [compound 2]
(Nx) protein binding shift α-GP 1 mg/mL (HIV-1): 2 x
(Nx) protein binding shift HSA 45 mg/mL (HIV-1): 40 x
EC90 (HIV-1; [6]): 200 nM
EC90 (HIV-1; [7]): 5 nM
EC90 (HIV-1; [8]): 10 nM

melting point: 250 °C
Compound: NC(=O)Cc1[nH]c2ccc(-n3cccc3)cc2c1S(=O)(=O)c1ccccc1 [25a, 5-(1H-Pyrrol-1-yl)-3-(phenylsulfonyl)indole-2-carboxyamide]

Compound: NC(=O)c1[nH]c2ccc(Cl)cc2c1S(=O)(=O)c1ccccc1 [compound 1]
(Nx) protein binding shift α-GP 1 mg/mL (HIV-1): 2 x
(Nx) protein binding shift HSA 45 mg/mL (HIV-1): 10 x
EC90 (HIV-1; [6]): 10 nM
EC90 (HIV-1; [7]): 1 nM
EC90 (HIV-1; [8]): 2 nM

Compound: Cc1cc(C)cc(S(=O)(=O)c2c(C(=O)NNCCO)[nH]c3ccc(Cl)cc23)c1 [compound 3, 5-Chloro-3-(3,5-dimethylphenylsulfonyl)indole-2-[N′-(2-hydroxy-ethyl)]-carboxyhydrazide]
(Nx) protein binding shift α-GP 1 mg/mL (HIV-1): 7 x
(Nx) protein binding shift HSA 45 mg/mL (HIV-1): 67 x
EC90 (HIV-1; [6]): 270 nM
EC90 (HIV-1; [7]): 4 nM
EC90 (HIV-1; [8]): 30 nM

melting point: 270 to 272 °C
Compound: Cc1cc(C)cc(S(=O)(=O)c2c(CC(N)=O)[nH]c3ccc([N+](=O)[O-])cc23)c1 [5k, 5-Nitro-3-(3,5-dimethylphenylsulfonyl)indole-2-carboxyamide]

Compound: Cc1cc(C)cc(S(=O)(=O)c2c(C(=O)N3CCN(C)CC3)[nH]c3ccc(Cl)cc23)c1 [Compd 13]
CC50 (mock-infected MT-4 cells): > 200000 nM

Compound: Cc1cc(C)cc(S(=O)(=O)c2c(C(N)=O)[nH]c3cc(F)c(F)cc23)c1 [compound 12, 3-(3,5-Dimethylpbenylsulfonyl)-5,6-difluoroindole-2-carboxyamide]
EC50 (HIV-1 Y181C; [5]): 70 nM
Y181C (Nx) resistance shift (HIV-1 Y181C): (≧23.3) x
EC50 (HIV-1 WTIIIB [1]; 50% protection of MT-4 cells): ≤ 3 nM
EC50 (HIV-1 K103N-Y181C; [10]): 2600 nM
K103N-Y181C (Nx) resistance shift (HIV-1 K103N-Y181C): ≥ 866 x

melting point: > 300 °C
Compound: CC(=O)c1ccc2[nH]c(CC(N)=O)c(Sc3cc(C)cc(C)c3)c2c1 [5l, 5-Acetyl-3-(3,5-dimethylphenylthio)indole-2-carboxyamide]

melting point: 298 to 300 °C
Compound: Cc1cc(C)cc(S(=O)(=O)c2c(CC(N)=O)[nH]c3ccc(F)c(F)c23)c1 [compound 11, 3-(3,5-Dimethylphenylsulfonyl)-4,5-difluoroindole-2-carboxyamide]

melting point: 268 to 270 °C
Compound: Cc1cc(C)cc(S(=O)(=O)c2c(CC(N)=O)[nH]c3ccc(Cl)c(F)c23)c1 [5g, 5-Chloro-3-(3,5-dimethylphenylsulfonyl)-4-fluoroindole-2-carboxyamide]

melting point: > 300 °C
Compound: Cc1cc(C)cc(S(=O)(=O)c2c(CC(N)=O)[nH]c3c(F)cc(F)cc23)c1 [compound 13, 3-(3,5-Dimethylphenylsulfonyl)-5,7-difluoroindole-2-carboxyamide]

Compound: CNNC(=O)c1[nH]c2ccc(Cl)cc2c1S(=O)(=O)c1cc(C)cc(C)c1 [Compd 10]
CC50 (mock-infected MT-4 cells): > 200000 nM

Compound: Cc1ccnc2c1NC(=O)c1cccnc1N2C1CC1 [NVP, nevirapine, reference compound]
EC50 (HIV-1 Y181C; [11]): > 30000 nM
EC50 (HIV-1 WTIIIB [1]; [12]): 370 nM
CC50 [3]: 200000 nM
EC50 (HIV-1 K103N-Y181C; [13]): > 30000 nM

Compound: O=C1Nc2ccc(Cl)cc2[C@@](C#CC2CC2)(C(F)(F)F)O1 [EFV, efavirenz, reference compound]
EC90 (HIV-1 K103R; Human immunodeficiency virus 1, C8166, read-out: K103R EC90): 1800 nM
EC50 (HIV-1 Y181C; [11]): 25 nM
EC50 (HIV-1 WTIIIB [1]; [12]): 4 nM
EC90 (HIV-1 WTIIIB [2]; Human immunodeficiency virus 1, C8166, read-out: WTIIIB EC90): 8 nM
CC50 [3]: 35000 nM
EC50 (HIV-1 K103N-Y181C; [13]): 150 nM

Compound: NC(=O)c1[nH]c2cc(Cl)c(Cl)cc2c1S(=O)(=O)c1ccccc1 [compound 8]
K103R (Nx) resistance shift (HIV-1 K103R): 94 x
EC90 (HIV-1 K103R; [4]): 16000 nM
EC50 (HIV-1 Y181C; [5]): 2600 nM
Y181C (Nx) resistance shift (HIV-1 Y181C): 18 x
EC50 (HIV-1 WTIIIB [1]; 50% protection of MT-4 cells): 140 nM
EC90 (HIV-1 WTIIIB [2]; [9]): 170 nM
CC50 (mock-infected MT-4 cells): 123000 nM
EC50 (HIV-1 K103N-Y181C; [10]): > 100000 nM
K103N-Y181C (Nx) resistance shift (HIV-1 K103N-Y181C): > 714 x
